According to article PMC6339703, “Visualizing the Distribution of Matrix Metalloproteinases in Ischemic Brain Using In Vivo ^19F-Magnetic Resonance Spectroscopic Imaging” (Contrast Media & Molecular Imaging, 2019):

Key:
[1] = biological target: T1, MMP2 (Homo sapiens, UniProt P08253); assay: in vitro MMP inhibition assay (Eurofins Panlabs); assay type: biochemical
T1 sequence (P08253 110-660): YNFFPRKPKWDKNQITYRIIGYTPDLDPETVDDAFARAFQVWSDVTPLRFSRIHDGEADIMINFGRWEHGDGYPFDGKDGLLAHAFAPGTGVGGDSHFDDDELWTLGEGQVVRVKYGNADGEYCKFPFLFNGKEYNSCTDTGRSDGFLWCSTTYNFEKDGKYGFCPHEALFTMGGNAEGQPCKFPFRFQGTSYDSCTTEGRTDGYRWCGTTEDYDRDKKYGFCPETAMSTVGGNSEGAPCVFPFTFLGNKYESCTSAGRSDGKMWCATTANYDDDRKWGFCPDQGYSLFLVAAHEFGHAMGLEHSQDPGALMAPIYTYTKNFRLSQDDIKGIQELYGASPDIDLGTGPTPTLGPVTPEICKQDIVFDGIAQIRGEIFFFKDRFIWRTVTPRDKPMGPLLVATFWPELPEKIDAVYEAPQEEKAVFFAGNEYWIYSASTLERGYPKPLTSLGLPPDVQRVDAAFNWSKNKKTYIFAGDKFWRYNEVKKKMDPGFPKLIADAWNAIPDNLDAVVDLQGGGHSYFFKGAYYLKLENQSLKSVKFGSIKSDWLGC

[2] = biological target: MMP9 (Homo sapiens, UniProt P14780); assay: in vitro MMP inhibition assay (Eurofins Panlabs); assay type: biochemical
Sequence of MMP9 (P14780 107-707): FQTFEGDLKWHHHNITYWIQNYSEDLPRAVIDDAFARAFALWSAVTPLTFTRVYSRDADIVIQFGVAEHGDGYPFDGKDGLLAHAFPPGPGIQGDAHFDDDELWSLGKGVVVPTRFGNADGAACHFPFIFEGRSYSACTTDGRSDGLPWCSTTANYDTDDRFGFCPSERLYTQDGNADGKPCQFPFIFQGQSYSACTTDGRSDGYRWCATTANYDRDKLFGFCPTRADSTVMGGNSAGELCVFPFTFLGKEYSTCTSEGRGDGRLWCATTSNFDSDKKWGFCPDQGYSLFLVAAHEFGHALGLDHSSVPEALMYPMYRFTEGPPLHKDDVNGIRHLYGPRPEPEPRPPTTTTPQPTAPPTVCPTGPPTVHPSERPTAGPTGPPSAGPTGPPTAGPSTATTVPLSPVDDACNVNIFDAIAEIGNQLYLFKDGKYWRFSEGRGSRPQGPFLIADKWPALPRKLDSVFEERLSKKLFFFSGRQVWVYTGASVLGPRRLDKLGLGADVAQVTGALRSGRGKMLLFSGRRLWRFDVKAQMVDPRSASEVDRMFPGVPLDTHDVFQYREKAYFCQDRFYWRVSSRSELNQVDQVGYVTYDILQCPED

SMILES: CNC(=O)C(Cc1c[nH]c2ccc(F)cc12)NC(=O)C(CC(=O)NO)CC(C)C (mixture of isomers) [TGF-019]
- in vitro MMP inhibition assay (Eurofins Panlabs) [1]: completely inhibit
- in vitro MMP inhibition assay (Eurofins Panlabs) [2]: completely inhibit
